Source: patent publication US20120308673A1, “COMPOSITION COMPRISING THE EXTRACT OF PRUNELLA VULGARIS L. FOR PREVENTING AND TREATING ADHD DISEASE AND THE USE THEREOF” (priority 2009, published 2012)

What was measured:
[1] = tested on: SHR animal model; test: Effect on alternation behavior of SHR animal model (modified Y-maze test); type: in vivo, rat; settings: 8 min period, dose dependent, p<0.05, FIG. 3
Method: To test the inhibitory effect of the extract of […] prepared in Example 1 on the alternation behavior of SHR animals, following modified Y-maze test was performed according to the procedure disclosed in the literature (Sarter M., et al., Attenuation of scopolamine-induced impairment of spontaneous alternation by antagonist but not agonist and agonist beta-carbolines, (1988), Psychopharmacology (Berl). 94:491-495; Kim D. H. et al, Gomisin A improves scopolamine-induced memory impairment in mice, (2006), Eur. J. Pharmacol., 542:129-235).
The Y-maze test was conducted in a three-arm maze with angles of 120° between the arms designates as A, B and C respectively, which were 42 cm long and 3 cm wide with walls that were 12 cm high each. The maze floor and walls were constructed from dark opaque polyvinyl plastic. Mice were initially placed within one arm and the sequence and number of arm entries were recorded manually for each mouse over an 8 min period. The percentage of triads in which all the arms were represented, i.e., ABC, CAB or BCA but not BAB, was recorded as an ‘alternation’ to estimate short-term memory. Control group animals received 0.9% saline solution and scopolamine (1 mg/kg, i.p.) or vehicle was introduced to induce memory impairment 30 mins before the test. […] The alternation score (%) for each mouse was calculated according to following math formula 1: […]

[2] = tested on: SHR animal model; test: Effect on hyperactivity of SHR animal model (total movement distance and duration in test box); type: in vivo, rat; settings: 3 mg/kg intraperitoneally, 30 mins after treatment, recorded for 10 mins
Method: To test the inhibitory effect of the extract of […] prepared in Example 1 on the hyperactivity of SHR animals, following test was performed according to the procedure disclosed in the literature (Kong, W. X et al., Effect on taurine on rat behaviors in three anxiety models, (2006), Pharmacology Biochem., Behavior 83:271-276; Arulmozhi D. K. et al, Pharmacological studies of the aqueous extract of Sapindus trifoliatus on central nervous system: possible ant-migraine mechanism, J. Ethnophamacol., 97:491-496).
The rats were acclimated with the environment for 1 week and with apparatus more than once for 10 mins prior to test. PV70E and PVW prepared in Example 1 used as test groups as well as methylphenidate (Johnson Mattey Public Limited Co.) used as a positive control were intraperitoneally administered into mice in a dose of 3 mg/kg.
30 mins after the treatment with test samples, the SHR mice, i.e., ADHD animal models, and normal mice used as negative control were placed on the test box to examine the movement of mice and to determine the total movement distance and total movement duration of the mice for 10 mins using by analysis apparatus (EthoVision system; Noldus IT b.v., Netherland).

Compound: COC(=O)C(c1ccccc1)C1CCCCN1 (stereo not drawn) [methylphenidate]
- alternation behavior of SHR [1]: inhibiting effect
- general movement of SHR (total movement distance and rearing number) ([2]; SHR, FIGS. 1 and 2): did not affect
- movement of normal mice ([2]; normal mice): increased the movement
